Experiment in all cases: whole-cell patch clamp, GABA-induced chloride current
Type in all cases: cell-based

Assay [1] has as its system T1, GABAA receptor (native, rat hippocampal CA3 pyramidal neurons).
T1 construct: gene Gabra1; native heteropentameric receptors in acutely isolated CA3 pyramidal neurons; subunit composition not determined
Particulars: positive allosteric modulator; 2 µM GABA co-applied; pH 7.4; holding -70 mV.

For assay [2], the system named is T2, GABAA receptor (native, rat cerebellar Purkinje cells).
T2 construct: gene Gabra1; native heteropentameric receptors in acutely isolated Purkinje neurons
Particulars: positive allosteric modulator, 2 µM GABA co-applied, pH 7.4, holding -70 mV.

Assay [3] has the same test system. Particulars: weak inhibition; 2 µM GABA co-applied; pH 7.4; holding -70 mV.

As for `CC(=O)[C@H]1CC[C@H]2[C@@H]3CC[C@@H]4C[C@@H](O)CC[C@]4(C)[C@H]3CC[C@]12C` [Epi, 3β-hydroxy-5β-pregnan-20-one], the results for the 50% effective concentration (EC50) in assay [1] and in assay [2] were 9.3 ± 2.9 µM and 5.7 ± 1.9 µM, respectively.
Take `CC(=O)[C@H]1CC[C@H]2[C@@H]3CC[C@H]4C[C@H](O)CC[C@]4(C)[C@H]3CC[C@]12C` [ALLO, 3α-hydroxy-5α-pregnan-20-one]: the midpoint of the response in assay [2] (fit to rising phase of bell-shaped curve), the EC50, lay at 0.29 ± 0.06 µM.
As for `CC(=O)[C@H]1CC[C@H]2[C@@H]3CC[C@H]4C[C@@H](O)CC[C@]4(C)[C@H]3CC[C@]12C` [Iso, 3β-hydroxy-5α-pregnan-20-one], the “% of control current at 100 μM” value in assay [3] came to 84 ± 4%.

One may read the EC50 as the concentration at which the effect is half-maximal. A lower EC50 goes with an effect from little substance.
